How the values were obtained:
Format in all cases: in vivo
[1] = system: catalase (CAT); assay: Catalase (CAT) activity in brain parts of treated BTBR mice; details: i.p., ST-2223 5 mg/kg, RAM 10 mg/kg, ARP 1 mg/kg, MEM 5 mg/kg, mean ± SEM; for CAT, Prefrontal Cortex: n = 3-6, BTBR vehicle 80.1 ± 14.9; for CAT, Striatum: n = 3-6, BTBR vehicle 104.6 ± 2.28; for CAT, Hippocampus: n = 3-6, BTBR vehicle 111.4 ± 4.8; for CAT, Cerebellum: n = 3-6, BTBR vehicle 130. 7 ± 3.3
Experimental: (§1) At the end of the behavioral assessments, the animals were sacrificed following previously published protocols. Animals were anesthetized with pentobarbital (40 mg/kg, body weight, i.p.), sacrificed, and perfused via intracardial infusion to wash out the blood, using 1× PBS (0.01 M phosphate buffer, 0.0027 M potassium chloride and 0.137 M sodium chloride) at pH 7.4. […] The brains were then quickly removed and placed on an ice plate. The cerebellum, hippocampus, prefrontal and striatum were excised from the brain and snap-frozen in liquid nitrogen for further use in biochemical assessments. On the day of the biochemical tests, the tissues were homogenized using radioimmunoprecipitation assay (RIPA) buffer (50 mM Tris HCl, pH 7.4, 140 mM NaCl, 1 mM EDTA, 0.5% Triton X-100 and 0.5% sodium deoxycholate) supplemented with protease and phosphatase inhibitors. Then, the homogenates were centrifuged at 14,000 rpm for 30 min (4 °C), and the supernatant was used for evaluation of lipid peroxidation, glutathione, and antioxidant enzymes using spectrophotometric measurements and enzyme-linked immunosorbent assays (ELISA)..
(§2) To assess the activity of antioxidant enzymes Superoxide dismutase (SOD) and Catalase (CAT), commercially available kits were used, following the manufacturer’s instructions, and as previously reported. Cayman assay kits (Cayman Chemicals Company, Ann Arbor, MI, USA) were used to assess antioxidant enzyme (superoxide dismutase (SOD) and catalase (CAT)) activities in experimental animals. Catalase assay: Twenty microliters of samples or standards and 30 μL of methanol was added to the assay buffer (100 μL) in 96-well plates. To this mixture, twenty microliter of hydrogen peroxide was added and incubated for 20 min at room temperature (RT) to initiate the reaction. Following incubation, 30 μL of potassium hydroxide was used to terminate the reaction, followed by subsequent addition of catalase purpald (30 μL) and catalase potassium periodate (10 μL). The plate was incubated for 5 min at room temperature in a shaker and the plate was read at 540 nm using a microplate reader. Catalase activity was expressed as nmol/min/mg protein. Superoxide dismutase assay: ten microliters of sample or standard was added in 96-well plates. Twenty microliters of xanthine oxidase were added to initiate the reaction. The reaction mixture was mixed for few seconds and incubated (covered) for 30 min at room temperature (RT). Absorbance was read at 450 nm using microplate reader. The activity of SOD was expressed as units/mg protein.

[2] = system: superoxide dismutase (SOD); assay: Superoxide dismutase (SOD) activity in brain parts of treated BTBR mice; details: i.p., ST-2223 5 mg/kg, RAM 10 mg/kg, ARP 1 mg/kg, MEM 5 mg/kg, mean ± SEM; for SOD, Prefrontal Cortex: n = 3-6, BTBR vehicle 45.1 ± 2.8; for SOD, Hippocampus: n = 3-6, BTBR vehicle 49.5 ± 0.5; for SOD, Cerebellum: n = 3-6, BTBR vehicle 49.7 ± 1.3; for SOD, Striatum: n = 3-6, BTBR vehicle 51.8 ± 1.2
Experimental: as §1, §2

[3] = system: BTBR and B6 mice; assay: Self-grooming paradigm (SGP); details: for time spent self-grooming vs vehicle-treated B6 mice / time spent self-grooming vs vehicle-treated BTBR mice: i.p., MEM 5 mg/kg, ARP 1 mg/kg; for time spent self-grooming vs vehicle-treated B6 mice: ST-2223 2.5, 5 and 10 mg/kg; for time spent self-grooming vs vehicle-treated BTBR mice: ST-2223 5 and 10 mg/kg
Experimental: The drugs tested included ST-2223 [N-(4-(4-(2-methoxyphenyl)piperazin-1-yl)butyl)-6-(3-(piperidin-1-yl)propoxy)-2-naphthamide] that was designed and synthesized in the Institute of Pharmaceutical and Medicinal Chemistry, Heinrich Heine University Düsseldorf, Germany, and in accordance with previously described methodologies (Supplementary Materials). Aripiprazole (ARP) (1 mg/kg, i.p.) and memantine (MEM, 5 mg/kg, i.p.), as reference drugs, were purchased from Sigma-Aldrich (St. Louis, MO, USA). The CNS-penetrant H3R agonist (R)-α-methylhistamine (RAM, 10 mg/kg, i.p.) was purchased from Sigma-Aldrich, St. Louis, MO, USA. T. Protease and the phosphatase inhibitor cocktail were procured from Thermo Scientific, USA. The assay kit for reduced glutathione (GSH) was obtained from Sigma-Aldrich (St. Louis, MO, USA). The lipid peroxidation assay kit for estimation of malondialdehyde (MDA) was purchased from North West Life Science (Vancouver, WA, USA). The assay kits for superoxide dismutase (SOD) and catalase (CAT) were purchased from Cayman Chemical (Ann Arbor, MI, USA). The drugs were prepared daily using 1% dimethyl sulfoxide (DMSO) in 0.9% saline, for intraperitoneal (i.p.) administration at a volume of 10 mL/kg of body weight. Vehicle treatment consisted of 1% DMSO in 0.9% normal saline. All drugs were i.p. administered 30 min before the behavioral test. The doses of these drugs were chosen based on previous reports. Neurobehavioral assessment was performed blindly with respect to experimental group and drug administration.
In the SGP test, mice were scored for spontaneous grooming behaviors. […] To measure SGP, each mouse was placed individually in a standard clear plastic cage (28 cm wide × 17 cm long × 12 cm high) for a total of 20 min. Mice were allowed to freely explore the cage for the entire test, the first 10 min served as a habituation period. After 10 min habituation, each mouse was scored with a stopwatch for 10 min for cumulative time spent grooming all body regions. Grooming behavior included head washing, body grooming, genital/tail grooming and paw and leg licking. The observer sat approximately 1 m from the test cage during the second 10 min of testing.

[4] = system: glutathione (GSH); assay: Quantification of glutathione (GSH) in brain parts of treated BTBR mice; details: i.p., ST-2223 5 mg/kg, RAM 10 mg/kg, ARP 1 mg/kg, MEM 5 mg/kg, mean ± SEM; for GSH, Striatum: n = 3-6, BTBR vehicle 583 ± 68.8; for GSH, Cerebellum: n = 3-6, BTBR vehicle 827 ± 93.3; for GSH, Prefrontal Cortex: n = 3-6, BTBR vehicle 835 ± 97.4; for GSH, Hippocampus: n = 3-6, BTBR vehicle 1096 ± 16.7
Experimental: as §1
Levels of GSH in tissue homogenates were carried out according to the manufacturer’s instructions of the commercially available Sigma’s glutathione assay kit (Sigma-Aldrich Chemie GmbH, Steinheim), and as previously described. In brief, samples were first deproteinized with 5% 5-sulfosalicylic acid solution, centrifuged to remove the precipitated protein, and then the supernatant was used to estimate GSH. Ten microliter samples or standards were incubated with 150 μL of working mixture (assay buffer + 5,5′-dithiobis (2-nitrobenzoic acid) + GSH reductase) in 96-well plates for 5 min. Diluted NADPH solution (50 µL) was added into each well and mixed thoroughly. Absorbance was measured at 412 nm with the kinetics for 5 min by using the microplate reader. Results are expressed as µM GSH/mg protein.

## O=C1CCc2ccc(OCCCCN3CCN(c4cccc(Cl)c4Cl)CC3)cc2N1 [ARP, aripiprazole]
[1]
  CAT, Prefrontal Cortex: 96.2 ± 1.3 nmol/min/mg protein
  CAT, Striatum: 120.5 ± 10.1 nmol/min/mg protein
  CAT, Hippocampus: 118.3 ± 6.5 nmol/min/mg protein
  CAT, Cerebellum: 159.2 ± 5.1 nmol/min/mg protein
[2]
  SOD, Prefrontal Cortex: 54.0 ± 5.2 units/mg protein
  SOD, Hippocampus: 51.8 ± 2.0 units/mg protein
  SOD, Cerebellum: 56.4 ± 1.1 units/mg protein
  SOD, Striatum: 65.7 ± 7.7 units/mg protein
[3]
  time spent self-grooming vs vehicle-treated B6 mice: did not alter
[4]
  GSH, Striatum: 1139 ± 74.6 µM GSH/mg protein
  GSH, Cerebellum: 1030 ± 36.2 µM GSH/mg protein
  GSH, Prefrontal Cortex: 935 ± 98.0 µM GSH/mg protein
  GSH, Hippocampus: 611.5 ± 62.6 µM GSH/mg protein

## CC12CC3CC(C)(C1)CC(N)(C3)C2 [MEM, memantine]
[1]
  CAT, Prefrontal Cortex: 94.1 ± 4.8 nmol/min/mg protein
  CAT, Striatum: 108.1 ± 3.4 nmol/min/mg protein
  CAT, Hippocampus: 114.3 ± 11.2 nmol/min/mg protein
  CAT, Cerebellum: 132.3 ± 4.5 nmol/min/mg protein
[2]
  SOD, Prefrontal Cortex: 44.9 ± 2.2 units/mg protein
  SOD, Hippocampus: 41.4 ± 3.4 units/mg protein
  SOD, Cerebellum: 64.4 ± 3.1 units/mg protein
  SOD, Striatum: 66.47 ± 4.4 units/mg protein
[3]
  time spent self-grooming vs vehicle-treated B6 mice: significantly reduced
[3]; BTBR mice
  time spent self-grooming vs vehicle-treated BTBR mice: significantly reduced
[4]
  GSH, Striatum: 915.5 ± 97.3 µM GSH/mg protein
  GSH, Cerebellum: 877 ± 55.7 µM GSH/mg protein
  GSH, Prefrontal Cortex: 719.3 ± 50.0 µM GSH/mg protein

## COc1ccccc1N1CCN(CCCCNC(=O)c2ccc3cc(OCCCN4CCCCC4)ccc3c2)CC1 [ST-2223, N-(4-(4-(2-methoxyphenyl)piperazin-1-yl)butyl)-6-(3-(piperidin-1-yl)propoxy)-2-naphthamide]
[1]
  CAT, Prefrontal Cortex: 116.8 ± 5.3 nmol/min/mg protein
  CAT, Striatum: 119.1 ± 3.7 nmol/min/mg protein
  CAT, Hippocampus: 173.0 ± 1.9 nmol/min/mg protein
  CAT, Cerebellum: 120.6 ± 8.8 nmol/min/mg protein
[2]
  SOD, Prefrontal Cortex: 43.2 ± 3.4 units/mg protein
  SOD, Hippocampus: 48.1 ± 4.2 units/mg protein
  SOD, Cerebellum: 64.3 ± 1.0 units/mg protein
  SOD, Striatum: 51.2 ± 7.7 units/mg protein
[3]
  time spent self-grooming vs vehicle-treated B6 mice: did not alter
[3]; BTBR mice, ST-2223 2.5 mg/kg i.p.
  self-grooming behavior vs vehicle-treated BTBR mice: failed to significantly mitigate
[3]; BTBR mice
  time spent self-grooming vs vehicle-treated BTBR mice: significantly, and dose-dependently, decreased
[4]
  GSH, Striatum: 1007 ± 93.1 µM GSH/mg protein
  GSH, Cerebellum: 1108 ± 41.1 µM GSH/mg protein
  GSH, Prefrontal Cortex: 1212 ± 302.6 µM GSH/mg protein
  GSH, Hippocampus: 916 ± 4.2 µM GSH/mg protein

Source: paper PMC7920280, “The Multi-Targeting Ligand ST-2223 with Histamine H3 Receptor and Dopamine D2/D3 Receptor Antagonist Properties Mitigates Autism-Like Repetitive Behaviors and Brain Oxidative Stress in Mice” (International Journal of Molecular Sciences, 2021)
